Here are results for nine compounds from patent publication US10364256B2 (GlaxoSmithKline Intellectual Property Development Limited, priority 2015, dated 2019).

Broadly, the IC50 is the concentration needed to halve the response being measured. A lower IC50 goes with greater potency in that assay. What is called EC50 is the concentration that produces a half-maximal response.

In experiment [1] the target is T1, full length Keap1 protein / full length NRF2 protein (Homo sapiens, UniProt Q14145).
T1 construct: full length NRF2 protein and full length Keap1 protein (Keap1 exists a dimer) are used; His
T1 sequence (Q14145 whole entry): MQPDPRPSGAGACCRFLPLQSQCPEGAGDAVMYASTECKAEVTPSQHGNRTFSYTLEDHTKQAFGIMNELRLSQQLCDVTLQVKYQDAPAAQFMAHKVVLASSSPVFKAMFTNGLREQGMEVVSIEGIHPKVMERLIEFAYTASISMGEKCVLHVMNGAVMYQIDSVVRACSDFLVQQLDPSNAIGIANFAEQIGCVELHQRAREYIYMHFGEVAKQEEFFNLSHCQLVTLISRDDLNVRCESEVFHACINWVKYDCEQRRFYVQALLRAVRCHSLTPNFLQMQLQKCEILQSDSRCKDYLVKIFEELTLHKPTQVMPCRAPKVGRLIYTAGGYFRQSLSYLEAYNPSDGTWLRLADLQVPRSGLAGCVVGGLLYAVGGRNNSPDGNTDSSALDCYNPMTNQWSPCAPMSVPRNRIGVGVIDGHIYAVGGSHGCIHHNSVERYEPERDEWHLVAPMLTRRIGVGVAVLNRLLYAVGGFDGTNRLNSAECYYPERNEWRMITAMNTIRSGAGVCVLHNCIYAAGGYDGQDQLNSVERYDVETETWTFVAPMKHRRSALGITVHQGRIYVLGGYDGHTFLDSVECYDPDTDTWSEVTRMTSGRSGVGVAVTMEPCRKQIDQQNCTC
The experiment in a line: NRF2-Keap1 TR-FRET Low Protein Assay. It counts as binding. As to conditions: 1.25 nM Keap1 FlagHis and 2.5 nM biotin-NRF2 added. The source says: NRF2-Keap1 TR-FRET Low Protein Assay In the NRF2-Keap1 TR-FRET (time-resolved fluorescence resonance energy transfer) low protein assay, full length NRF2 protein and full length Keap1 protein (Keap1 exists a dimer) are used. The assay detects a compound's ability to displace the binding of Keap1 […] with biotinylated Avi-NRF2 protein. Biotin-NRF2 binds to streptavidin-europium (a component of the detection mix) and Keap1 […] is recognized by anti-Flag APC (allophycocyanin) antibody (also a component of the detection mix). If binding occurs between the two proteins, there will be an energy transfer from the Eu+3 (donor) at 615 nm to the APC (acceptor) at 665 nm. A potential NRF2 inhibitor will cause a reduction in the TR-FRET signal by interfering with the binding of Keap1 to NRF2. Ten nanoliters of 100× compound dose response curves (serial 3-fold dilutions) in DMSO are stamped using an Echo liquid handling system (Labcyte) into 384-well, low volume, black assay plates (Greiner, #784076), with DMSO in columns 6 and 18. An additional 90 nl DMSO is added to each well, to bring the total volume to 100 nl per well. The top concentration of compound is located in columns 1 and 13, with the serial dilutions going across the row. All reagents are diluted in assay buffer (50 mM Tris, pH 8.0, 5 mM MgCl2, 100 mM NaCl, 0.005% BSA, 1 mM DTT, and 2 mM CHAPS. The BSA, DTT, and CHAPS are added to the assay buffer on the day of assay. […] Wells in column 18 receive 5 ul of assay buffer instead. Plates are centrifuged at 500 rpm for 1 minute, covered with a plate lid, and incubated at 37° C. for 2.25 hours. Plates are then removed from the incubator and allowed to cool to RT for 15 minutes. Five microliters of 2.5 nM biotin-NRF2 protein is then added to all wells of the plates and the plates are spun at 500 rpm for 1 minute, followed by incubating at 4° C. for 1.25 hours. The plates are then allowed to warm to RT for 15 minutes, followed by the addition of 10 ul of detection mix (1 nM Streptavidin Eu+W1024 and 5 ug/ml mouse anti-DYKDDDDK IgG conjugated to SureLight APC antibody; both from Columbia Biosciences) to all wells. Plates are spun at 500 rpm for 1 minute, incubated for 1 hour at RT, and read on an Envision plate reader using a 320 nm excitation filter and 615 nm and 665 nm emission filters. […] Data analysis is handled using the software package Abase XE (Surrey, United Kingdom). […] For calculation of pIC50s, Abase XE uses a four parameter equation. pIC50 is the negative log of the IC50.
On the technique in general: TR-FRET usually uses a lanthanide donor and a delayed reading to cut background.

Experiment [2] has as its system NQO1 specific enzyme activity in BEAS-2B cells (marker for NRF2 activation). The experiment in a line: BEAS-2B NQO1 MTT Assay. It counts as cell-based. As to conditions: Homo sapiens, compound incubated 48 hours, read-out: EC50 (NQO1 specific enzyme activity induction). The source says:
BEAS-2B NQO1 MTT Assay NAD(P)H:quinone oxidoreductase 1 (NQO1), also called DT diaphorase, is a homodimeric FAD-containing enzyme that catalyzes obligatory NAD(P)H-dependent two-electron reductions of quinones and protects cells against the toxic and neoplastic effects of free radicals and reactive oxygen species arising from one-electron reductions. The transcription of NQO1 is finely regulated by NRF2, and thus NQO1 activity is a good marker for NRF2 activation. On day one, frozen BEAS-2B cells (ATCC) are thawed in a water bath, counted, and re-suspended at a concentration of 250,000 cells/mL. Fifty microliters of cells are plated in 384 well black clear-bottomed plates. Plates are incubated at 37° C., 5% CO2 overnight. On day two, plates are centrifuged and 50 nL of compound or controls are added to the cells. Plates are then incubated at 37° C., 5% CO2 for 48 hours. On day four, medium is aspirated from the plate and crude cell lysates are made by adding 13 uL of 1× Cell Signaling Technologies lysis buffer with 1 Complete, Mini, EDTA-free Protease Inhibitor Tablet (Roche) for each 10 mL of lysis buffer. After lysis plates are incubated for 20 minutes at room temperature. Two microliters of lysate are removed for use in Cell Titer Glo assay (Promega) and MTT cocktail is prepared (Prochaska et. al. 1998) for measurement of NQO1 activity. Fifty microliters of MTT cocktail is added to each well, plate is centrifuged, and analyzed on an Envision plate reader (Perkin Elmer) using Absorbance 570 nm label for 30 minutes. Product formation is measured kinetically and the pEC50 of NQO1 specific activity induction is calculated by plotting the change in absorbance (Delta OD/min) versus the log of compound concentration followed by 3-parameter fitting. pEC50 is the negative log of the EC50.

For experiment [3], the target named is T2, Keap1 Kelch domain (321-609) / TAMRA-labeled 16mer NRF2 peptide (ETGE motif) (Homo sapiens, UniProt Q14145).
T2 construct: the Kelch domain (321-609) of Keap1 is used
T2 sequence (Q14145 321-609): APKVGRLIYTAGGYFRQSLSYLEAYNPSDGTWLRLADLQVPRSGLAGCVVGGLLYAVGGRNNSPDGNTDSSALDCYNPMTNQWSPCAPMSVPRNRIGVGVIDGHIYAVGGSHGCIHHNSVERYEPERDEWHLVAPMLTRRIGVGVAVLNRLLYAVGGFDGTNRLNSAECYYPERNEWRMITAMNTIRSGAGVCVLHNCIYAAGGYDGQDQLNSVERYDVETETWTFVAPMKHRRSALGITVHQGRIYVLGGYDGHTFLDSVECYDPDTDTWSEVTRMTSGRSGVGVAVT
The experiment in a line: NRF2-Keap1 FP Assay (Keap1 Kelch fluorescence polarization). It counts as binding. As to conditions: 20 nM Keap1 (321-609), 8 nM Tamra labeled peptide. The source says:
One model for the NRF2-Keap1 interaction is through two binding sites in the Neh2 domain on NRF2. The two sites are referred to as the DLG binding motif (latch domain, uM affinity) and the ETGE binding motif (hinge domain, nM affinity). The Keap1 protein consists of an N-terminal region (NTR), a broad complex, tramtrack, and brick a′ brac domain (BTB), an intervening region (IVR), a double glycine repeat domain (DGR or Kelch), and a C-terminal region. The DLG and ETGE motifs of NRF2's Neh2 domain bind to the Kelch domain of Keap1 at different affinities. In the Keap1 Kelch fluorescence polarization (FP) assay, a TAMRA-labeled 16mer peptide (AFFAQLQLDEETGEFL) containing the ETGE motif of NRF2 and the Kelch domain (321-609) of Keap1 is used. The assay determines if a compound interferes with the binding between Keap1 […] and the TAMRA-labeled peptide. Binding of TAMRA-labeled NRF2 peptide to Keap1 (321-609) results in a high FP signal. If a compound interferes with the binding between the peptide and the protein, it will cause the assay signal to decrease. Thus, assay signal is inversely proportional to binding inhibition.
100 nl of 100× compound dose response curves (serial 3-fold dilutions) in DMSO are stamped using an Echo liquid handling system (Labcyte) into 384-well low volume black assay plates (Greiner, #784076), with DMSO in columns 6 and 18. The top concentration of compound is located in columns 1 and 13. Keap1 (321-609) is diluted to 40 nM (2×) in 1× assay buffer (50 mM Tris, pH 8.0, 100 mM NaCl, 5 mM MgCl2, 1 mM DTT, 2 mM CHAPS, and 0.005% BSA) and 5 ul is added using a Multidrop Combi (Thermo Electron Corporation) equipped with a metal tip dispenser to all wells of the compound plate, except column 18. Column 18 receives only 5 ul of assay buffer. Immediately, 5 uL of 16 nM (2×) of Tamra labeled peptide (AFFAQLQLDEETGEFL, 21st Century Biochemicals) is added to all wells of the plate. The plates are spun at 500 rpm for 1 min, incubated for 1 hr at room temperature, and read on an Analyst GT (Molecular Devices) equipped with excitation (530/25 nm) and emission (580/10 nm) filters designed for Tamra probes. A 561 nm dichroic mirror is also used in the Analyst. The final assay concentrations of Keap1 (321-609) and Tamra labeled peptide are 20 nM and 8 nM, respectively. Fluorescence measurements, represented as mP, are used in the transformation of the data. Compound activity is calculated based on percent inhibition, normalized against controls in the assay (Control 1 contains the Tamra peptide and Keap1 (321-609) together (0% response) and control 2 contains the Tamra peptide alone (100% response)). Data analysis is handled using the software package Abase XE (Surrey, United Kingdom. The % inhibition values are calculated by the equation: 100−(100*((compound response−average control 2)/(average control 1−average control2))). For calculation of pIC50s, Abase XE uses a four parameter equation. pIC50 is the negative log of the IC50.
In general terms: Polarisation of emitted light reports the rotation of a fluorescent probe.

In the case of `C[C@H](Oc1cccc(-c2cccc(-n3ncc(C(=O)O)c3[C@@H]3C[C@H]3c3cn(C4CCCCC4)nn3)c2)c1)C1CCCCC1` (racemic) [Example 84, 5-(trans-2-(1-Cyclohexyl-1H-1,2,3-triazol-4-yl)cyclopropyl)-1-(3′-((S)-1-cyclohexylethoxy)-[1,1′-biphenyl]-3-yl)-1H-pyrazole-4-carboxylic acid], the concentration for half-maximal inhibition (IC50) was in the range of 10 to 100 nM in experiment [1] and 100 to 1000 nM in experiment [3]. In experiment [2], the EC50 is 10 to 100 nM.

For `C[C@H](Oc1cccc(-c2cccc(-n3ncc(C(=O)O)c3[C@@H]3C[C@H]3c3cn(C4CNC4)nn3)c2)c1)C1CCCCC1` (racemic) [Example 85, 5-(trans-2-(1-(Azetidin-3-yl)-1H-1,2,3-triazol-4-yl)cyclopropyl)-1-(3′-((S)-1-cyclohexylethoxy)-[1,1′-biphenyl]-3-yl)-1H-pyrazole-4-carboxylic Acid], the 50% inhibitory concentration (IC50) in experiment [1] and in experiment [3] was 10 to 100 nM throughout. Also, the EC50 in experiment [2] was 100 to 1000 nM.

For `C[C@H](Oc1cccc(-c2cccc(-n3ncc(C(=O)O)c3[C@@H]3C[C@H]3c3cn(C4CCNCC4)nn3)c2)c1)C1CCCCC1` (racemic) [Example 86, 1-(3′-((S)-1-cyclohexylethoxy)-[1,1′-biphenyl]-3-yl)-5-(trans-2-(1-(piperidin-4-yl)-1H-1,2,3-triazol-4-yl)cyclopropyl)-1H-pyrazole-4-carboxylic Acid], the half-inhibitory concentration (IC50) in experiment [1] and in experiment [3] was 10 to 100 nM in each case. Moreover, in experiment [2], the EC50 lay in the range of 100 to 1000 nM.

In the case of `C[C@H](Oc1cccc(-c2cccc(-n3ncc(C(=O)O)c3[C@@H]3C[C@H]3c3cn(Cc4ccccc4)nn3)c2)c1)C1CCCCC1` (racemic) [Example 87, 5-(trans-2-(1-Benzyl-1H-1,2,3-triazol-4-yl)cyclopropyl)-1-(3′-((S)-1-cyclohexylethoxy)-[1,1′-biphenyl]-3-yl)-1H-pyrazole-4-carboxylic Acid], the IC50 in experiment [1] and in experiment [3] was 100 to 1000 nM throughout. In addition, the EC50 in experiment [2] lay within 10 to 100 nM.

For the compound `C[C@H](Oc1cccc(-c2cccc(-n3ncc(C(=O)O)c3[C@@H]3C[C@H]3c3cn(CCN(C)C)nn3)c2)c1)C1CCCCC1` (racemic) [Example 88, 1-(3′-((S)-1-Cyclohexylethoxy)-[1,1′-biphenyl]-3-yl)-5-(trans-2-(1-(2-(dimethylamino)ethyl)-1H-1,2,3-triazol-4-yl)cyclopropyl)-1H-pyrazole-4-carboxylic acid], the IC50 in experiment [1] and in experiment [3] was 10 to 100 nM throughout. The EC50 in experiment [2] was 10 to 100 nM.

For `C[C@H](Oc1cccc(-c2cccc(-n3ncc(C(=O)O)c3[C@@H]3C[C@H]3c3cn(CCO)nn3)c2)c1)C1CCCCC1` (racemic) [Example 90, 1-(3′-((S)-1-Cyclohexylethoxy)-[1,1′-biphenyl]-3-yl)-5-(trans-2-(1-(2-hydroxyethyl)-1H-1,2,3-triazol-4-yl)cyclopropyl)-1H-pyrazole-4-carboxylic acid], the concentration for half-maximal inhibition (IC50) in experiment [1] was less than 10 nM; in experiment [3] it was 10 to 100 nM. In addition, the EC50 in experiment [2] was 10 to 100 nM.

Turning to `CC(C)n1cc([C@@H]2C[C@H]2c2c(C(=O)O)cnn2-c2cccc(-c3cccc(O[C@@H](C)C4CCCCC4)c3)c2)nn1` (racemic) [Example 91, 1-(3′-((S)-1-Cyclohexylethoxy)-[1,1′-biphenyl]-3-yl)-5-(trans-2-(1-isopropyl-1H-1,2,3-triazol-4-yl)cyclopropyl)-1H-pyrazole-4-carboxylic acid], the IC50 in experiment [1] and in experiment [3] was 10 to 100 nM each time. In experiment [2], the EC50 was in the range of 1 to 10 nM.

With `C[C@H](Oc1cccc(-c2cccc(-n3ncc(C(=O)O)c3[C@@H]3C[C@H]3c3cn(-c4ccccc4)nn3)c2)c1)C1CCCCC1` (racemic) [Example 92], the IC50 was 100 to 1000 nM in experiment [1] and 10 to 100 nM in experiment [3]. Further, the EC50 in experiment [2] lay in the range of 1 to 10 nM.

Consider `C[C@H](Oc1cccc(-c2cccc(-n3ncc(C(=O)O)c3[C@@H]3C[C@H]3c3cn(C4CN(C)C4)nn3)c2)c1)C1CCCCC1` (racemic) [Example 94, 1-(3′-((S)-1-Cyclohexylethoxy)-[1,1′-biphenyl]-3-yl)-5-(trans-2-(1-(1-methylazetidin-3-yl)-1H-1,2,3-triazol-4-yl)cyclopropyl)-1H-pyrazole-4-carboxylic Acid], for which the half-maximal inhibitory concentration (IC50) in experiment [1] and in experiment [3] was 10 to 100 nM throughout. In addition, the EC50 in experiment [2] lay within 10 to 100 nM.
